The results in this text go back to PubChem BioAssay (NCI).

Test systems include SNB-78 CNS; DLD-1 colon; XF 498 CNS; RXF-631 renal; DU-145 prostate; MDA-MB-231 breast; HS 578T breast; MDA-N.
Holding throughout (test): NCI anticancer screen, dose series, 48 h

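Grown in 96-well plates, cells were treated for 48 hours with each compound at five concentrations. Insufficient inhibition: endpoint recorded as highest concentration tested. The concentration for 50% growth inhibition is given as GI50. TGI denotes the concentration required for complete inhibition of growth.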

Turning to `CS(=O)(=O)OCCN1CCN(C(=O)c2cccc3c(Nc4ccc(S(=O)(=O)N=C(N)N)cc4)c4ccccc4nc23)CC1`, the TGI with SNB-78 CNS, in the assay on DLD-1 colon and with XF 498 CNS was above 100 µM each time.
For `O=C(Nc1cccs1)c1c(O)[nH]c(=S)[nH]c1=O`, the TGI with RXF-631 renal and in the assay with DLD-1 colon was above 100 µM throughout.
On to `Clc1ccc(Cc2nc3ccccc3s2)c(Cl)c1`, for which the TGI came to 30.1 µM in the assay with RXF-631 renal, 29 µM in the assay with DLD-1 colon and 26.5 µM in the assay with XF 498 CNS.
`COc1cc(/C=C\c2ccccc2)cc(OC)c1OC`: the TGI is above 87.1 µM with RXF-631 renal, above 89.8 µM in the assay on SNB-78 CNS, above 78.2 µM with DLD-1 colon and 23.7 µM in the assay with XF 498 CNS.
On to `CCOC(=O)C1(Br)C(c2ccccc2)NC(=O)NC1(C)Br` (stereo unspecified), for which the TGI in the assay with RXF-631 renal, in the assay with SNB-78 CNS, in the assay with DU-145 prostate, in the assay on DLD-1 colon, in the assay with MDA-MB-231 breast and in the assay with XF 498 CNS was above 100 µM throughout. The compound further registered a TGI in the assay on HS 578T breast above 100 µM. For the same compound, the GI50 in the assay with DU-145 prostate was 44.5 µM; in the assay with MDA-MB-231 breast it was 27.8 µM; in the assay with HS 578T breast, 37.4 µM.
On to `O=C(Nc1cccc([N+](=O)[O-])c1)C(=O)C(C(=O)c1ccccc1-c1ccccc1)C1OC(=O)c2ccccc21` (stereo unspecified), for which the TGI in the assay with RXF-631 renal was 61.5 µM; in the assay with SNB-78 CNS it was above 100 µM; in the assay on DLD-1 colon, 42.2 µM; with XF 498 CNS, 41.4 µM.
With `CC1(C)C(=O)C(C)(C)C1=NN`, the TGI with SNB-78 CNS, in the assay on DLD-1 colon and in the assay with XF 498 CNS was above 100 µM each time.
As to `COc1ccccc1N=C(N)N/N=C/c1c[nH]c2ccccc12`, the results for the TGI in the assay on SNB-78 CNS, in the assay with DLD-1 colon and in the assay on XF 498 CNS were 25.1 µM, 31.7 µM and 16.9 µM, respectively.
In the assay with XF 498 CNS, `CC12N=NN(c3ccc([N+](=O)[O-])cc3)C1(O)c1ccccc1C2=O` (stereo unspecified) gave a TGI above 100 µM.
For the compound `O=C(O)C1C2CCC(O2)C1C(=O)N1CCCCC1` (stereo unspecified), the results for the TGI in the assay with RXF-631 renal, with SNB-78 CNS and in the assay with DLD-1 colon were 51.6 µM, 38.3 µM and 39.7 µM, respectively.
As for `O=C(O)COc1ccc(O)c2c1C(=O)CCCC2=O`, the TGI in the assay on RXF-631 renal, in the assay on SNB-78 CNS, in the assay with DLD-1 colon and in the assay on XF 498 CNS was above 100 µM throughout.
As to `CCCCC1CC(c2cccc([N+](=O)[O-])c2)=NO1` (stereo unspecified), the TGI in the assay with RXF-631 renal, in the assay on SNB-78 CNS and with DLD-1 colon was above 100 µM in each case.
Consider `NC1CCCCC1.[O]=[Ge].[O]=[Ge].[O]=[Ge][OH].[O]=[Ge][OH]`, for which the TGI in the assay on SNB-78 CNS, in the assay with DLD-1 colon and with XF 498 CNS was above 100 µM throughout. In addition, the GI50 in the assay with XF 498 CNS is above 100 µM.
For `O=Cc1ccccc1OCCOc1cc(OCCOc2ccccc2C=O)c(OCCOc2ccccc2C=O)cc1OCCOc1ccccc1C=O`, the TGI with SNB-78 CNS is above 100 µM; in the assay on DLD-1 colon, above 100 µM; with XF 498 CNS it was above 71.5 µM.
Consider `C=C(CCCCCCCCC)CC(=O)SCCNC(=O)CCNC(=O)C(O)C(C)(C)COP(=O)(O)OP(=O)(O)OCC1OC(n2cnc3c(N)ncnc32)C(O)C1OP(=O)(O)O` (stereo unspecified), for which the TGI in the assay with RXF-631 renal was above 100 µM; in the assay on SNB-78 CNS, 65 µM; with MDA-N, above 76.6 µM; in the assay with DU-145 prostate, above 100 µM; with DLD-1 colon it was above 100 µM; in the assay on MDA-MB-231 breast, above 100 µM. The TGI in the assay with XF 498 CNS and with HS 578T breast was above 100 µM throughout.
For `C=CC1[C@H]2COC(C)(C)O[C@@H]2CC(=O)C1(C)C` (stereo partly specified), the TGI in the assay with SNB-78 CNS, in the assay on DLD-1 colon and in the assay on XF 498 CNS was above 100 µM throughout.
On to `CC(=O)NNc1nc(C)c(C(=O)NNC(=O)C(=O)Nc2c(C)cccc2C)s1`, for which the TGI in the assay with RXF-631 renal, in the assay with SNB-78 CNS and with DLD-1 colon was above 100 µM each time.
Regarding `O=C(c1ccc(Cl)cc1)c1ccc(OCCCCCCCCCCOc2ccc(C(=O)c3ccc(Cl)cc3)cc2)cc1`, the TGI in the assay on RXF-631 renal, in the assay with SNB-78 CNS and with DLD-1 colon was above 100 µM each time.
As for `OCCCOC(c1ccccc1)(c1ccccc1)c1ccccc1`, the TGI in the assay on RXF-631 renal, with SNB-78 CNS, in the assay with DLD-1 colon and in the assay with XF 498 CNS was above 100 µM in each case.
As for `CC1OC(OCC2OC(Oc3c(-c4ccc(O)cc4)oc4cc(O)cc(O)c4c3=O)C(OC3OC(C)C(O)C(O)C3O)C(O)C2O)C(O)C(O)C1O` (stereo unspecified), the TGI with RXF-631 renal, with SNB-78 CNS, with DLD-1 colon and with XF 498 CNS was above 100 µM in each case.
As for `CC(=O)Nc1ccc(C(=O)NN2C(=O)C(Cl)C2c2ccc([N+](=O)[O-])cc2)cc1` (stereo unspecified), the TGI in the assay on SNB-78 CNS and in the assay on XF 498 CNS was above 100 µM throughout.
Consider `COC1=CC(=O)C2C(C1=O)[C@@H]1c3ccccc3C[C@H]21` (stereo partly specified), for which the TGI in the assay with RXF-631 renal, in the assay on SNB-78 CNS, in the assay on DLD-1 colon and in the assay on XF 498 CNS was above 100 µM each time.
For `COC(=O)C1C(O)CC(c2ccccn2)N(Cc2ccccc2)C1c1ccccn1` (stereo unspecified), the TGI in the assay on RXF-631 renal, in the assay with SNB-78 CNS and in the assay on DLD-1 colon was above 100 µM each time.
In the case of `COc1ccccc1/C=C1\CCC(CCN(C)C)(C2=CCCC2)C1=O` (stereo unspecified), the TGI with RXF-631 renal stood at 29.8 µM; in the assay with SNB-78 CNS, 65.9 µM; with DLD-1 colon, 38.5 µM; with XF 498 CNS it was 31.7 µM.
On the same counts, the results for `CC(C)C1(O)C(c2ccccc2)=C(c2ccccc2)C(c2ccccc2)=C1c1ccccc1` are 51.3 µM, above 100 µM, above 100 µM and 14.2 µM.
On to `Nc1nc2c(c(=O)[nH]1)NC(CO)CN2` (stereo unspecified), for which the TGI in the assay with DLD-1 colon and in the assay with XF 498 CNS was above 100 µM in each case.
On to `CCc1cccc(C(C)C)c1NC(=O)C(=O)CC(=O)c1c(C)n([O-])c2ccccc2[n+]1=O`, for which the TGI in the assay on RXF-631 renal, in the assay with SNB-78 CNS, with DLD-1 colon and with XF 498 CNS was above 100 µM in each case.
Consider `Cc1ccc(-c2cc(-c3ccco3)c(C#N)c(=O)[nH]2)cc1`, for which the TGI with SNB-78 CNS and in the assay with DLD-1 colon was above 100 µM throughout.
Regarding `O=C(c1ccccc1)C1CCCCN1C(=O)c1ccccc1` (stereo unspecified), the TGI in the assay on SNB-78 CNS and in the assay on DLD-1 colon was above 100 µM in each case.
Regarding `CC(=O)N[C@@H]1C(O)CN2C(=O)C(=O)O[C@H](C(O)CO)[C@@H]12` (stereo partly specified), the TGI in the assay with RXF-631 renal, in the assay with SNB-78 CNS, with DLD-1 colon and in the assay on XF 498 CNS was above 100 µM in each case.
